Results: US20230233533A1, “COMPOSITIONS, METHODS OF TREATING AND PREVENTING FUNGAL INFECTIONS, AND METHODS OF INHIBITING PRP8 INTEIN EXPRESSION” (Health Research, Inc., priority 2020, published 2023)
pIC50: −log10 of the molar value. Converted amounts (≈) assume the structure as drawn.

Columns and labels:
[1] = target: T1, Prp8 intein (Cryptococcus gattii, UniProt E6R027); assay: Split Renilla luciferase RLuc-Prp8 intein splicing assay; assay type: biochemical; conditions: split Renilla luciferase RLuc-Prp8 intein splicing
T1 sequence (E6R027 entry or part of it): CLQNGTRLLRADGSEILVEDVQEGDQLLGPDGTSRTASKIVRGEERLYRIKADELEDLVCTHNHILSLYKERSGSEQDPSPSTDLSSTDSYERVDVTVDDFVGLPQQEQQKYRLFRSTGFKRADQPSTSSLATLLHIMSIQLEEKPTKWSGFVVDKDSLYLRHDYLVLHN
Protocol: Split luciferase Prp8 intein splicing assay—The split RLuc-Prp8 fusion protein was carried out and monitored using a Veritas luminometer, as described previously.
(§1) Split luciferase RLuc-Prp8 and NnLuc-Prp8 intein splicing assays—The split RLuc-Prp8 intein splicing assay was carried out and monitored using a Veritas luminometer, as described previously. […] Microbes. Infect. […] For NnLuc-Prp8 intein splicing assay, the NnLuc-prp8 is diluted in assay buffer (50 mM Tris, 0.1% BSA, 1 mM EDTA, pH 7.4) and 50 ul is added to each well in 96 well black plates. Test molecules or the solvent was added and incubated for 30 to 60 min. A splicing inducer TCEP (50 ul, 100 μM) is added and incubated for 24 h. Luciferase substrate (Furimazine, 25 ul 1:10,000 diluted) is added and luminescence is read using a luminescence reader. IC50 is calculated using Graphpad prism.

[2] = target: T1, Prp8 intein; assay: Split GFP-Prp8i intein splicing assay; assay type: biochemical; conditions: split GFP-Prp8 intein splicing
Protocol: Cloning, expression and purfication—The split GFP-Prp8i was constructed using a mega-PCR mutagenesis approach. […] After digestion with Dpn I restriction enzyme, the PCR product was transformed into DH5α Escherichia coli. Clones were verified by plasmid DNA sequencing. The expression, refolding and purification of the GFP-Prp8i fusion protein were carried out as described previously.
[…] Then 100 μl 2×TCEP was added to a final concentration of 20 μM. The reactions were incubated at 25° C. overnight. […] Two readings were taken, one prior to addition of TCEP (I0) and one after incubation overnight with TCEP (If). Fluorescence/luminescence differences (ΔFluorescence or ΔLuminescence) were defined as If−I0 for each well. […] DMF control served as 100% splicing activity.
(§2) Split GFP-Prp8 and CJGFP-Prp8 intein splicing assays—Using black and clear bottom 96-well plates, the DPNB-treated, -refolded and -concentrated GFP-Prp8 or CfGFP-Prp8 fusion protein (0.5 μM) was incubated with compounds or Dimethylsulfoxide (DMSO) solvent control for 30 min at 25° C. in a 100 μl intein splicing buffer (20 mM Bis-tris propane, 0.5 M NaCl, 0.5 M arginine, 1 mM EDTA, and 0.05% CHAPS). Then 100 μl 2×TCEP was added to a final concentration of 20 μM. The reactions were incubated at 25° C. overnight. […] Two readings were taken, one prior to addition of TCEP (I0) and one after incubation overnight with TCEP (If). Fluorescence/luminescence differences (ΔFluorescence or ΔLuminescence) were defined as If−I0 for each well. […] DMSO control served as 100% splicing activity.

[3] = in vitro; assay type: cell-based, human; conditions: human, CC50 A549
Protocol: Cytotoxicity—Cytotoxicity assays were carried out using human lung carcinoma cell line A549, as described (Chen et al., “Selective Inhibition of the West Nile Virus Methyltransferase by Nucleoside Analogs,” Antiviral Research 97(3):232-239 (2013), which is hereby incorporated by reference in its entirety). Briefly, the A549 cells (5×10^3) were incubated with/without compounds in a 96-well plate at 37° C. for 48 h. Cell viability was determined using the MTT assay (ATCC) as was described previously (Chen et al., “Selective Inhibition of the West Nile Virus Methyltransferase by Nucleoside Analogs,” Antiviral Research 97(3):232-239 (2013) and Brecher et al., “Identification and Characterization of Novel Broad-Spectrum Inhibitors of the Flavivirus Methyltransferase,” ACS Infectious Diseases 1(8):340-349 (2015), both of which are hereby incorporated by reference in their entirety). N=3.
Cytotoxicity—Cytotoxicity assays were carried out using human lung carcinoma cell line A549, as described. Chen et al., “Selective Inhibition of the West Nile Virus Methyltransferase by Nucleoside Analogs,” Antiviral Res. 97:232-9 (2013), which is hereby incorporated by reference in its entirety. Briefly, the A549 cells (5×10^3) were incubated with/without compounds in a 96-well plate at 37° C. for 48 h. Cell viability was determined using the MTT assay (ATCC) as was described previously (Chen et al., “Selective Inhibition of the West Nile Virus Methyltransferase by Nucleoside Analogs,” Antiviral Research 97(3):232-239 (2013) and Brecher et al., “Identification and Characterization of Novel Broad-Spectrum Inhibitors of the Flavivirus Methyltransferase,” ACS Infectious Diseases 1(8):340-349 (2015), both of which are hereby incorporated by reference in their entirety). N=3.

[4] = tested on: C. neoformans H99 strain; assay: Fungal susceptibility test, broth microdilution MIC; assay type: cell-based, Cryptococcus neoformans; conditions: Cryptococcus neoformans, H99STRAIN; C. neoformans H99, microbroth dilution; read-out: MIC H99
Protocol: Fungal susceptibility test—The fungal susceptibility test was carried out with a compound concentration series as described. […] The broth microdilution method was used to determine the compound MIC values against C. neoformans.
Fungal susceptibility test—The fungal susceptibility test was carried out with a compound concentration series as described. […] Microbes. Infect. […] The broth microdilution method was used to determine the compound MIC values against C. neoformans.

[5] = target: T1, Prp8 intein; assay: Split nanoluciferase NnLuc-Prp8 intein splicing assay; assay type: biochemical
Protocol: (§3) The constructs for Cys-free (Cf) GFP-Prp8 and Cys-free nanoluciferase NnLuc-Prp8 were codon-optimized, synthesized, and cloned into the pET28a vector using the NcoI and XhoI sites by Gene Universal (Gene Universal, Newark Del.). […] The expression, refolding and purification of the CfGFP-Prp8 and NnLuc-Prp8 fusion proteins were carried out as described previously. […] Microbes. Infect.
as §1

[6] = target: T1, Prp8 intein; assay: Split Cys-free (Cf) GFP-Prp8 intein splicing assay; assay type: biochemical; conditions: read-out: IC50 CfGFP-Prp8 (converted)
Protocol: as §3, §2

| Structure (SMILES) | pIC50 [1] | pIC50 [2] | CC50 at 48 h [3] [µM] | MIC [4] [µM] | pIC50 [5] | IC50 [6] [µM] |
| --- | --- | --- | --- | --- | --- | --- |
| O=C(Nc1ccc(F)cc1F)c1ncsc1S(=O)(=O)c1ccc(Cl)cc1 [JMX0515, 5-((4-Chlorophenyl)sulfonyl)-N-(2,4-difluorophenyl)thiazole-4-carboxamide] | 4.42 | < 4.30 | 210 | > 100 | – | – |
| O=C(Nc1ccccc1F)c1ncsc1S(=O)(=O)c1ccc(Cl)cc1 [JMX0516, 5-((4-Chlorophenyl)sulfonyl)-N-(2-fluorophenyl)thiazole-4-carboxamide] | 4.88 | 4.31 | 144 | > 100 | – | – |
| O=C(Nc1cccc(F)c1)c1ncsc1S(=O)(=O)c1ccc(Cl)cc1 [JMX0517, 5-((4-Chlorophenyl)sulfonyl)-N-(3-fluorophenyl)thiazole-4-carboxamide] | 4.55 | < 4.30 | 161 | > 100 | – | – |
| O=C(Nc1ccc(Cl)cc1)c1ncsc1S(=O)(=O)c1ccc(Cl)cc1 [JMX0518, N-(4-Chlorophenyl)-5-((4-chlorophenyl)sulfonyl)thiazole-4-carboxamide] | 5.19 | 4.55 | 57.3 | 50 (≈ 20.7 µg/mL) | – | – |
| O=C(Nc1ccc(Cl)cc1Cl)c1ncsc1S(=O)(=O)c1ccc(Cl)cc1 [JMX0519, 5-((4-Chlorophenyl)sulfonyl)-N-(2,4-dichlorophenyl)thiazole-4-carboxamide] | 4.93 | 4.30 | 245 | > 100 | – | – |
| O=C(Nc1ccc(F)c(F)c1)c1ncsc1S(=O)(=O)c1ccc(Cl)cc1 [JMX0520, 5-((4-Chlorophenyl)sulfonyl)-N-(3,4-difluorophenyl)thiazole-4-carboxamide] | 4.56 | < 4.30 | 81.6 | > 100 | – | – |
| O=C(Nc1ccc(C(F)(F)F)cc1)c1ncsc1S(=O)(=O)c1ccc(Cl)cc1 [JMX0521, 5-((4-Chlorophenyl)sulfonyl)-N-(4-(trifluoromethyl)phenyl)thiazole-4-carboxamide] | 4.53 | 4.30 | 54.1 | > 100 | – | – |
| O=C(Nc1cc(F)cc(C(F)(F)F)c1)c1ncsc1S(=O)(=O)c1ccc(Cl)cc1 [JMX0522, 5-((4-Chlorophenyl)sulfonyl)-N-(3-fluoro-5-(trifluoromethyl)phenyl) thiazole-4-carboxamide] | 4.69 | 4.63 | 97.7 | 100 (≈ 46.5 µg/mL) | – | – |
| O=C(Nc1ccc(C(F)(F)F)nc1)c1ncsc1S(=O)(=O)c1ccc(Cl)cc1 [JMX0523, 5-((4-Chlorophenyl)sulfonyl)-N-(6-(trifluoromethyl)pyridin-3-yl) thiazole-4-carboxamide] | 4.43 | < 4.30 | 114 | > 100 | – | – |
| O=C(Nc1ccc(F)nc1)c1ncsc1S(=O)(=O)c1ccc(Cl)cc1 [JMX0524, 5-((4-Chlorophenyl)sulfonyl)-N-(6-fluoropyridin-3-yl)thiazole-4-carboxamide] | 5.11 | < 4.30 | 174 | > 100 | – | – |
| O=C(Nc1ccc(F)cc1)c1ncsc1S(=O)(=O)c1ccc(Cl)cc1 [JMX0525, 5-((4-Chlorophenyl)sulfonyl)-N-(4-fluorophenyl)thiazole-4-carboxamide] | 5.19 | < 4.30 | 309 | > 100 | – | – |
| O=C(NCc1ccc(F)cc1)c1ncsc1S(=O)(=O)c1ccc(Cl)cc1 [JMX0541, 5-((4-Chlorophenyl)sulfonyl)-N-(4-fluorobenzyl)thiazole-4-carboxamide] | 4.97 | < 4.30 | 114 | 100 (≈ 41.1 µg/mL) | – | – |
| O=C(Nc1ccc(F)cc1)c1nnsc1Sc1ccc(Cl)cc1 [JMX0564, 5-((4-Chlorophenyl)thio)-N-(4-fluorophenyl)-1,2,3-thiadiazole-4-carboxamide] | 4.80 | 4.25 | 418 | > 100 | – | – |
| O=C(Nc1ccc(F)cc1)c1nnsc1[S+]([O-])c1ccc(Cl)cc1 (centres unmarked) [JMX0565-1, 5-((4-Chlorophenyl)sulfinyl)-N-(4-fluorophenyl)-1,2,3-thiadiazole-4-carboxamide] | 4.78 | 5.15 | 32.5 | 0.097 (≈ 0.037 µg/mL) | – | – |
| O=C(Nc1ccc(F)cc1)c1nnsc1S(=O)(=O)c1ccc(F)cc1F [JMX1062, 5-((2,4-Difluorophenyl)sulfonyl)-N-(4-fluorophenyl)-1,2,3-thiadiazole-4-carboxamide] | – | – | 65.4 | > 50 | 4.66 | 38.2 |
| O=C(Nc1ccc(F)cc1)c1nnsc1S(=O)(=O)c1cccc(C(F)(F)F)c1 [JMX1063, N-(4-Fluorophenyl)-5-((3-(trifluoromethyl)phenyl)sulfonyl)-1,2,3-thiadiazole-4-carboxamide] | – | – | 137 | 6.25 (≈ 2.7 µg/mL) | 4.55 | 35 |
| O=C(Nc1ccc(F)cc1)c1nnsc1[S+]([O-])c1cccc(C(F)(F)F)c1 (centres unmarked) [JMX1063-2, N-(4-Fluorophenyl)-5-((3-(trifluoromethyl)phenyl)sulfinyl)-1,2,3-thiadiazole-4-carboxamide] | – | – | 93.8 | 6.25 (≈ 2.6 µg/mL) | 4.91 | 29.2 |
| O=C(Nc1ccc(F)cc1)c1nnsc1S(=O)(=O)c1ccc(Cl)c(Cl)c1 [JMX1064, 5-((3,4-Dichlorophenyl)sulfonyl)-N-(4-fluorophenyl)-1,2,3-thiadiazole-4-carboxamide] | – | – | 78.4 | 1.56 (≈ 0.674 µg/mL) | 4.59 | 32.6 |
| O=C(Nc1ccc(F)cc1)c1nnsc1[S+]([O-])c1ccc(Cl)c(Cl)c1 (centres unmarked) [JMX1064-2, 5-((3,4-Dichlorophenyl)sulfinyl)-N-(4-fluorophenyl)-1,2,3-thiadiazole-4-carboxamide] | – | – | 122 | > 50 | 4.46 | 19.8 |
| O=C(Nc1cccc(F)c1)c1nnsc1S(=O)(=O)c1ccc(Cl)cc1 [JMX 871, 5-((4-Chlorophenyl)sulfonyl)-N-(3-fluorophenyl)-1,2,3-thiadiazole-4-carboxamide] | – | – | 140 | 3.12 (≈ 1.24 µg/mL) | 4.57 | 35.4 |
